The text below walks through data of publication PMC13231895 (Antimicrobial Agents and Chemotherapy, 2026).

A short description of the data set: Plasma pharmacokinetics after single […] IV infusion of nacubactam 2 g coadministered with meropenem 2 g (Phase 1). Format: in vivo, healthy adult male and female volunteers. The note with it: n = 21, geometric mean (CV%), 2 g nacubactam + 2 g meropenem IV.

Experimental: The study consisted of a screening visit (Days −28 to −1), a treatment and sampling period (Day 1), and a safety follow-up visit (Days 7–14). […] The two drugs were administered concurrently as separate solutions through two separate lines via a large bore, double-lumen catheter, under the supervision of study personnel. […] While all participants received the same study drug treatment and followed the same blood sampling scheme, each individual was assigned to one of five possible timepoints (2, 3, 4, 6, or 8 h after the start of study drug administration) for the BAL procedure. Equal numbers of participants were assigned to each timepoint, and assignment of individual participants was at the discretion of the investigator. […] An additional plasma sample was taken at the same time as part of the BAL procedure to measure urea. The plasma samples were stored at −80°C pending analysis. […] PK parameters were estimated by non-compartmental analysis using Phoenix WinNonlin (version 6.4; Certara USA, Inc.) by Covance.

For the compound `NCCONC(=O)[C@@H]1CC[C@@H]2CN1C(=O)N2OS(=O)(=O)O` [Nacubactam], the “AUC0–8h” value is 275 (19) µg·h/mL.
